Laboratory results reported in US6998244B1, “Cloning and expression of a novel 5-HT4 receptor” (Janssen Pharmaceutica N.V., priority 1999, dated 2006).

What was measured:
human 5-HT4(b) receptor [1] = target: T1, human 5-HT4(b) receptor (Homo sapiens, UniProt Q13639); assay: Competition with […] [3H]GR113808 binding, membranes of transfected COS-7 cells; details: for pKi / Ki: Human 5-HT4 b receptor in Cos-7 cells, Cheng and Prusoff
T1 construct: expressed in transfected cells; host or cells: COS-7 cells, transient transfection with a pcDNA3 construct
T1 sequence (Q13639 whole entry): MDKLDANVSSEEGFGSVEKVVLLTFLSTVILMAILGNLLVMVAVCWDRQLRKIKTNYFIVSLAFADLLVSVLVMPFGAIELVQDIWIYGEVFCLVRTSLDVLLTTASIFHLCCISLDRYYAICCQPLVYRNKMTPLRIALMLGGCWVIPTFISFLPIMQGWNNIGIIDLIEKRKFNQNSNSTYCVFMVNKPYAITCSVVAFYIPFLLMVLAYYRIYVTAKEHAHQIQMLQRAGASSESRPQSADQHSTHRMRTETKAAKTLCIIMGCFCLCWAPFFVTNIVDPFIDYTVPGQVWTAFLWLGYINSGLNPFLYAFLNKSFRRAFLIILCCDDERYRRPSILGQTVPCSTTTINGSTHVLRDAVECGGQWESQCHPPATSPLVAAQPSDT

human 5-HT4(h) receptor [2] = target: T2, human 5-HT4(h) receptor (Homo sapiens, UniProt Q13639); assay: as above; details: for pKi: Human 5-HT4 h receptor in Cos-7 cells, Cheng and Prusoff
T2 sequence (Q13639 1-402 isoform Q13639-6): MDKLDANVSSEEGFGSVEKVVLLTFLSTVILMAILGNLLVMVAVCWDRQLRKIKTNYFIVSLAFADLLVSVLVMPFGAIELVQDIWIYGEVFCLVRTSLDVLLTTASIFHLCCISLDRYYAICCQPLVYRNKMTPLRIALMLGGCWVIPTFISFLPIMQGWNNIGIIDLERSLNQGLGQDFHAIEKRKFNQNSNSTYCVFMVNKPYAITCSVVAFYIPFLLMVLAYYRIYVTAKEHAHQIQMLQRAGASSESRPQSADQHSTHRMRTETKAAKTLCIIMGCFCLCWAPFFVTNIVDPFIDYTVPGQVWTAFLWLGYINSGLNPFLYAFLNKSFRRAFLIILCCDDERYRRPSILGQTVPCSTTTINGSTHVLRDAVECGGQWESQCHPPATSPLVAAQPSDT

human 5-HT4(a) receptor [3] = target: T3, human 5-HT4(a) receptor (Homo sapiens, UniProt Q13639); assay: as above; details: for pKi / Ki: Human 5-HT4 a receptor in Cos-7 cells, Cheng and Prusoff
T3 construct: expressed in transfected cells; host or cells: COS-7 cells, transient transfection with a pcDNA3 construct
T3 sequence (Q13639 1-387 isoform Q13639-2): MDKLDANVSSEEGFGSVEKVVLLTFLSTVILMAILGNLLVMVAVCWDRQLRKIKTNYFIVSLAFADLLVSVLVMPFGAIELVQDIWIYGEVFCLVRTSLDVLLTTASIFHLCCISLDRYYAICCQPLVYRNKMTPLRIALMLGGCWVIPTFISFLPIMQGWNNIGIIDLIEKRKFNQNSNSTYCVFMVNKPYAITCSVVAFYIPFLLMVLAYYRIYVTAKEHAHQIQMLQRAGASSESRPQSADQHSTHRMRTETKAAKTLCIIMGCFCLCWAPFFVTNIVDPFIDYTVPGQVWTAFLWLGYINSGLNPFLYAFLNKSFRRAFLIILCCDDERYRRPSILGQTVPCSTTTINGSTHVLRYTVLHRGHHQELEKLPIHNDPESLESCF

[4] = tested on: COS-7 cells transfected with the empty vector; assay: cAMP assay, negative control cells; assay type: cell-based; details: stimulation with 10^−6 M of each agonist
From the text: Results represent the increase of cAMP after stimulation by agonist since basal level has been removed. […] The efficacy and potency of the different agonists to trigger the cellular response was estimated and compared for the three different variants. […] No difference in the pEC50 was noticed. The cAMP assay has been performed also for COS-7 cells transfected with the empty vector as a negative control.
These experiments were done using the NEN adenylyl cyclase activation flashplate assay, according to the supplier. Cells were removed from the Petri dishes with 3 ml EDTA (0.04% w/v) and resuspended with phosphate buffered saline without Ca^2+ and Mg^2+. The cells were centrifuged at 1500 g for 5 minutes and the supernatants were removed. The pellet was resuspend in stimulation buffer and diluted to a concentration of 10^6 cells/ml, 50 μl thereof were added per well of the flashplate (50000 cells/well). Compounds were diluted in PBS containing 1 mM pargyline and 1 mM paroxetine, and 50 μl of the resulting mixture was added per well, followed by an incubation for 20 minutes at […]. […] The experiment was stopped and a direct cAMP[^125I] detection assay was performed by adding 100 μl of detection mix per well. After incubation for 24 h at room temperature, counting was done in a Topcount (Packard).

human 5-HT4(h) receptor [5] = target: T2, human 5-HT4(h) receptor; assay: cAMP formation in transiently transfected COS-7 cells (flashplate assay); assay type: cell-based; design: expressed in transfected cells; host or cells: COS-7 cells, transient transfection with 5-HT4(h)/pcDNA3
Method: (§1) Results represent the increase of cAMP after stimulation by agonist since basal level has been removed. […] The efficacy and potency of the different agonists to trigger the cellular response was estimated and compared for the three different variants.
(§2) These experiments were done using the NEN adenylyl cyclase activation flashplate assay, according to the supplier. Cells were removed from the Petri dishes with 3 ml EDTA (0.04% w/v) and resuspended with phosphate buffered saline without Ca^2+ and Mg^2+. The cells were centrifuged at 1500 g for 5 minutes and the supernatants were removed. The pellet was resuspend in stimulation buffer and diluted to a concentration of 10^6 cells/ml, 50 μl thereof were added per well of the flashplate (50000 cells/well). Compounds were diluted in PBS containing 1 mM pargyline and 1 mM paroxetine, and 50 μl of the resulting mixture was added per well, followed by an incubation for 20 minutes at 370° C. […] After incubation for 24 h at room temperature, counting was done in a Topcount (Packard).

human 5-HT4(a) receptor [6] = target: T3, human 5-HT4(a) receptor; assay: as above; assay type: cell-based; details: 5-HT4 variant a, n = 5, cAMP formation
Method: as §1, §2

human 5-HT4(b) receptor [7] = target: T1, human 5-HT4(b) receptor; assay: as above; assay type: cell-based; details: 5-HT4 variant b, n = 8, cAMP formation
Method: as §1, §2

[8] = tested on: COS-7 cells transfected with the vector alone; assay: Radioligand binding, negative control cells; details: 3 independent transfections
From the text: The same result was obtained for the Bmax values found for the high affinity sites of the 2 reference 5-HT receptor variants a and b. […] Results are the mean of three independent transfections.

5-HT4(a) variant = target: T4, 5-HT4(a) variant (Homo sapiens, UniProt Q13639); assay: Radioligand saturation binding, membranes of transfected COS-7 cells
T4 construct: expressed in transfected cells; host or cells: COS-7 cells, transient transfection with a pcDNA3 construct
T4 sequence (Q13639 1-387 isoform Q13639-2): as above
From the text: (§3) In order to compare the pharmacological properties of the 5-HT4(h) variant with those of the previously cloned 5-HT4(a) and b variant, the three corresponding pcDNA3 expression constructs were transiently transfected into COS cells. The receptors were investigated by radioligand binding assays on membrane preparations.

5-HT4(b) variant = target: T5, 5-HT4(b) variant (Homo sapiens, UniProt Q13639); assay: as above
T5 construct: expressed in transfected cells; host or cells: COS-7 cells, transient transfection with a pcDNA3 construct
From the text: as §3

h 5-HT4(h) = target: T6, h 5-HT4(h) (Homo sapiens, UniProt Q13639); assay: as above; details: h variant, 3 independent transfections
T6 construct: expressed in transfected cells; host or cells: COS-7 cells, transient transfection with 5-HT4(h)/pcDNA3
T6 sequence (Q13639 1-402 isoform Q13639-6): as the sequence (Q13639 1-402 isoform Q13639-6) above
From the text: as §3

[9] = 5-HT4 variant h, n = 3, cAMP formation

Row | SMILES | pKi (human 5-HT4(b) receptor [1]) | pKi (human 5-HT4(h) receptor [2]) | pKi (human 5-HT4(a) receptor [3]) | increase of the cAMP basal level [4] | % of 5HT max (+/− SD) (human 5-HT4(h) receptor [5]; [9]) [%] | % of 5HT max (+/− SD) (human 5-HT4(a) receptor [6]) [%] | % of 5HT max (+/− SD) (human 5-HT4(b) receptor [7]) [%] | other results
1 | COc1ccc2[nH]cc(CCN)c2c1 [5-MeOT] | 6.13 | 6.1 | 6.08 | – | – | – | – | –
2 | NCCc1c[nH]c2ccc(O)cc12 [5HT, 5-hydroxytryptamine] | – | – | – | no significant increase | 100 | 100 | 100 | –
3 | COc1cc(N)c(Cl)cc1C(=O)NC1CCN(CCCOc2ccc(F)cc2)CC1OC (stereo not drawn) [Cisapride] | – | – | – | no significant increase | – | – | – | –
4 | Cn1cc(C(=O)OCC2CCN(CCNS(C)(=O)=O)CC2)c2ccccc21 [GR113808] | 9.57 | 9.29 | 9.54 | – | 54.6 | 0 | 0 | pEC50 (+/1 SD) (human 5-HT4(h) receptor [5]; [9]): 7.95; effect at the 5-HT4(h) variant (agonist/antagonist) (human 5-HT4(h) receptor [5]; in words): agonistic effect
5 | CCOc1cc(N)c(Cl)cc1C(=O)NCC1CN(Cc2ccc(F)cc2)CCO1 (stereo not drawn) [Mosapride] | – | – | – | – | – | – | – | IC50 (human 5-HT4(b) receptor [1]): 912 nM; Ki (human 5-HT4(b) receptor [1]): 661 nM; IC50 (human 5-HT4(h) receptor [2]): 282 nM; Ki (human 5-HT4(h) receptor [2]): 141 nM; IC50 (human 5-HT4(a) receptor [3]): 331 nM; Ki (human 5-HT4(a) receptor [3]): 195 nM
6 | COCCCN1CCC(NC(=O)c2cc(Cl)c(N)c3c2OCC3)CC1 [Prucalopride] | – | – | – | no significant increase | 95 | 118 | 117.36 | –
7 | CCCCN1CCC(COC(=O)c2cc(Cl)c(N)c3c2OCCO3)CC1 [SB204070] | 10.04 | 10.38 | 10.15 | – | – | – | – | –
8 | CCCCCNC(=N)N/N=C/c1c[nH]c2ccc(OC)cc12 [SDZ-HTF919] | – | – | – | – | – | – | – | IC50 (human 5-HT4(b) receptor [1]): 12.9 nM; Ki (human 5-HT4(b) receptor [1]): 8.13 nM; IC50 (human 5-HT4(h) receptor [2]): 35.5 nM; Ki (human 5-HT4(h) receptor [2]): 25.7 nM; IC50 (human 5-HT4(a) receptor [3]): 8.32 nM; Ki (human 5-HT4(a) receptor [3]): 13.8 nM
9 | Cn1cc(C(=O)OCC2CCN(CCNS(C)(=O)=O)CC2)c2ccccc21 [[^3H]GR113808] | – | – | – | – | – | – | – | specific binding [8]: no specific binding; Kd (5-HT4(a) variant): 0.14 nM; Kd (5-HT4(b) variant): 0.19 nM; Kd (h 5-HT4(h)): 0.24 nM
